Assay results taken from PMC3043298, “Development of Novel In Silico Model to Predict Corneal Permeability for Congeneric Drugs: A QSPR Approach” (Journal of Biomedicine and Biotechnology, 2011).
Structures can show the parent of a compound that is named as a salt.

How the values were obtained:
[1] = Experimentally derived Δlog P by shake flask method (OECD No. 107 and 117); assay type: physicochemical; conditions: difference of log P(o/w) and log P(cyclohexane/water)
in vivo = conditions: both, New Zealand albino, rabbit; for AUC / Cmax / Tmax: topical or ocular
Procedure: In both groups, individual fluoroquinolones were dissolved at concentration of 0.1%. Thus, the total fluoroquinolones concentration in group A and group B were 0.4% and 0.5%, respectively. Sterile boric acid (1.9% w/v) in water was used as the aqueous media and the final formulations were filtered using 0.22 μ filter and autoclaved further before use.
Study protocol and experimental procedures were approved by the Institutional Animal Ethics Committee of All India Institute of Medical Sciences (AIIMS), New Delhi, India. New Zealand albino rabbits of either sex (1.5–2.0 kg) were obtained from Central Animal Facility, AIIMS. Animals were housed at standard laboratory conditions temperature-controlled room at 24 ± 2°C and humidity 55 ± 15% and given food and water ad libitum. All experiments were performed in accordance to the Association for Research in Vision and Ophthalmology (ARVO) statement for the use of animals in ophthalmic and vision research.
The sterile cocktail formulations of group A and group B were individually instilled (50 μL) on the lower fornix of rabbit eyes (n = 4) with the help of a calibrated micropipette. […] For each time point, a volume amounting to 50 μL of aqueous humor was aspirated through the corneal surface. The aqueous humor samples obtained were stored at −80°C until quantification by HPLC.
A Thermo Finnigan (Thermo Electron Corporation, USA) HPLC equipped with degasser, quaternary pump, autosampler, and PDA detector was employed for quantification of fluoroquinolones in samples. In the chromatographic quantification, analytical separation was performed using a C18 Symmetry Shield column (4.6 × 150 mm, 5 μm, Waters, USA) under a gradient flow of methanol, acetonitrile, and potassium phosphate buffer (20 mM, pH 2.5) at different ratio and time. For each spiked compound an external calibration curve was plotted and the analyte's spectra was assessed by matching them with custom made PDA spectra of inbuilt library of Chromquest version 4 (Thermo Electron Corporation, USA).
The dried concentrate was reconstituted with 100 μL mixture of water and acetonitrile (1 : 1), and 20 μL of the obtained supernatant was injected for quantification.
In Vivo Data Permeability coefficients (logPC) were obtained from controlled in vivo experiment conducted in rabbits using cassette dosing (N-in-One) approach.

SMILES | ΔlogP (Cyclohexane-Octanol) [1] | logPC (30 min) (in vivo) | logPC (240 min) (in vivo) | AUC (in vivo) [ng·h/mL] | Cmax (in vivo) [ng/mL] | Tmax (in vivo) [h]
COc1c(N2CCNC(C)C2)c(F)cc2c(=O)c(C(=O)O)cn(C3CC3)c12 (stereo not shown) [Gatifloxacin] | 0.526 | −5.006 | −6.628 | 1180 | 682 ± 904 | 0.5
C[C@H]1COc2c(N3CCN(C)CC3)c(F)cc3c(=O)c(C(=O)O)cn1c23 [Levofloxacin] | 0.734 | – | – | – | – | 1
CCn1cc(C(=O)O)c(=O)c2cc(F)c(N3CCNC(C)C3)c(F)c21 (stereo not shown) [Lomefloxacin HCl, Lomefloxacin] | 1.113 | −5.519 | −6.859 | 833 | 266 ± 46 | 1
COc1c(N2C[C@@H]3CCCN[C@@H]3C2)c(F)cc2c(=O)c(C(=O)O)cn(C3CC3)c12 [Moxifloxacin] | – | – | – | 1040 | 594 ± 294 | 0.5
CCn1cc(C(=O)O)c(=O)c2cc(F)c(N3CCNCC3)cc21 [Norfloxacin] | 0.051 | −5.051 | −6.382 | 2850 | 456 ± 59 | 1
CC1COc2c(N3CCN(C)CC3)c(F)cc3c(=O)c(C(=O)O)cn1c23 (stereo not shown) [Ofloxacin] | 0.759 | – | – | – | – | 1
C[C@@H]1CN(c2c(F)c(N)c3c(=O)c(C(=O)O)cn(C4CC4)c3c2F)C[C@H](C)N1 [Sparfloxacin] | 1.025 | −4.753 | −6.396 | 1770 | 1150 ± 514 | 0.5
